In patent US3997549A, “N-arylsulfenylated derivatives of benzofuranyl methylcarbamates” (priority 1973, dated 1976):
In brackets after ≈: the same amount, converted by molar mass.

Tested on: Mexican bean beetle
Experiment: Initial contact activity, Mexican bean beetle
Conditions: Epilachna varivestis, 48 h, read-out: % Kill, BB (initial contact)

Row | SMILES | mortality at 1250 ppm
1 | CN(Sc1nc2ccccc2s1)C(=O)Oc1cccc2c1OC(C)(C)C2 [Example VII, 2,3-Dihydro-2,2-dimethyl-7-benzofuranyl (2-benzothiazolylthio)(methyl)carbamate] | 91%

Tested on: southern army worm
Experiment: Initial contact activity, southern army worm
Conditions: 1250 ppm, 48 h exposure

Row | SMILES | % Kill, AW (initial contact)
2 | CN(Sc1nc2ccccc2s1)C(=O)Oc1cccc2c1OC(C)(C)C2 [Example VII, 2,3-Dihydro-2,2-dimethyl-7-benzofuranyl (2-benzothiazolylthio)(methyl)carbamate] | 62%

Tested on: milkweed bug
Experiment: Residual contact activity, milkweed bug
Conditions: Oncopeltus fasciatus, 48 h, read-out: % Kill, MWB (residual contact)

Row | SMILES | mortality at 1250 ppm
3 | CN(Sc1nc2ccccc2s1)C(=O)Oc1cccc2c1OC(C)(C)C2 [Example VII, 2,3-Dihydro-2,2-dimethyl-7-benzofuranyl (2-benzothiazolylthio)(methyl)carbamate] | 100%

Tested on: Mexican bean beetle
Experiment: Residual contact activity, Mexican bean beetle
Conditions: Epilachna varivestis, 48 h, read-out: % Kill, BB (residual contact)

Row | SMILES | mortality at 1250 ppm
4 | CN(Sc1nc2ccccc2s1)C(=O)Oc1cccc2c1OC(C)(C)C2 [Example VII, 2,3-Dihydro-2,2-dimethyl-7-benzofuranyl (2-benzothiazolylthio)(methyl)carbamate] | 100%

Tested on: plum curculio
Experiment: Residual contact activity, plum curculio
Conditions: Conotrachelus nenuphar, 48 h, read-out: % Kill, PC (residual contact)

Row | SMILES | mortality at 1250 ppm
5 | CN(Sc1nc2ccccc2s1)C(=O)Oc1cccc2c1OC(C)(C)C2 [Example VII, 2,3-Dihydro-2,2-dimethyl-7-benzofuranyl (2-benzothiazolylthio)(methyl)carbamate] | 55%

Tested on: milkweed bug
Experiment: Initial contact activity, milkweed bug
Conditions: Oncopeltus fasciatus, 48 h, read-out: % Kill, MWB (initial contact)

Row | SMILES | mortality at 1250 ppm
6 | CN(Sc1nc2ccccc2s1)C(=O)Oc1cccc2c1OC(C)(C)C2 [Example VII, 2,3-Dihydro-2,2-dimethyl-7-benzofuranyl (2-benzothiazolylthio)(methyl)carbamate] | 100%

Tested on: pea aphid
Experiment: Residual contact activity, pea aphid
Conditions: Acyrthosiphon pisum, 48 h, read-out: % Kill, PA (residual contact)

Row | SMILES | mortality at 1250 ppm
7 | CN(Sc1nc2ccccc2s1)C(=O)Oc1cccc2c1OC(C)(C)C2 [Example VII, 2,3-Dihydro-2,2-dimethyl-7-benzofuranyl (2-benzothiazolylthio)(methyl)carbamate] | 0%

Tested on: two-spotted spider mite
Experiment: Initial contact activity, two-spotted spider mite
Conditions: Tetranychus urticae, 48 h, read-out: % Kill, SM (initial contact)

Row | SMILES | mortality at 1250 ppm
8 | CN(Sc1nc2ccccc2s1)C(=O)Oc1cccc2c1OC(C)(C)C2 [Example VII, 2,3-Dihydro-2,2-dimethyl-7-benzofuranyl (2-benzothiazolylthio)(methyl)carbamate] | 72%

Tested on: pea aphid
Experiment: whole plant or invertebrate
Conditions: Acyrthosiphon pisum, 48 h, read-out: % Kill, PA (systemic)

Row | SMILES | mortality at 39 ppm | mortality at 156 ppm
9 | CN(Sc1nc2ccccc2s1)C(=O)Oc1cccc2c1OC(C)(C)C2 [Example VII, 2,3-Dihydro-2,2-dimethyl-7-benzofuranyl (2-benzothiazolylthio)(methyl)carbamate] | 100% | 100%

Tested on: granary weevil
Experiment: Residual contact activity, granary weevil
Conditions: Sitophilus granarius, 48 h, read-out: % Kill, GW (residual contact)

Row | SMILES | mortality at 1250 ppm
10 | CN(Sc1nc2ccccc2s1)C(=O)Oc1cccc2c1OC(C)(C)C2 [Example VII, 2,3-Dihydro-2,2-dimethyl-7-benzofuranyl (2-benzothiazolylthio)(methyl)carbamate] | 100%

Tested on: two-spotted spider mite
Experiment: whole plant or invertebrate
Conditions: Tetranychus urticae, 48 h, read-out: % Kill, SM (systemic)

Row | SMILES | mortality at 39 ppm | mortality at 156 ppm
11 | CN(Sc1nc2ccccc2s1)C(=O)Oc1cccc2c1OC(C)(C)C2 [Example VII, 2,3-Dihydro-2,2-dimethyl-7-benzofuranyl (2-benzothiazolylthio)(methyl)carbamate] | 3% | 2%

Tested on: not listed separately
Experiment: in vivo
Conditions: mouse, po
Method: Acute oral toxicity of the compounds of the present invention to mice was determined after the manner of Hollingworth, Fukuto, and Metcalf in J. Agr. […] A dose of 0.25 ml of each solution was administered to each of four female white Swiss mice using the "bolus" - tipped syringe. […] Final mortality determinations were made forty-eight hours after treatment.

Row | SMILES | LD50 at 48 h
12 | CN(Sc1nc2ccccc2s1)C(=O)Oc1cccc2c1OC(C)(C)C2 [Example VII, 2,3-Dihydro-2,2-dimethyl-7-benzofuranyl (2-benzothiazolylthio)(methyl)carbamate] | 50 mg/kg

Tested on: southern army worm
Experiment: Residual contact activity, southern army worm
Conditions: 1250 ppm; 7 days; 2880 min

Row | SMILES | % Kill, AW (residual contact)
13 | CN(Sc1nc2ccccc2s1)C(=O)Oc1cccc2c1OC(C)(C)C2 [Example VII, 2,3-Dihydro-2,2-dimethyl-7-benzofuranyl (2-benzothiazolylthio)(methyl)carbamate] | 100%

Tested on: Culex fatigans
Experiment: whole plant or invertebrate
Conditions: Culex quinquefasciatus, 24 h, read-out: Mosquitoes LC50
Method: The appropriate amount of stock solution was added with stirring to 100 ml of tap water and 20-25 fourth instar larvae of Culex fatigans were placed in the solution. After twenty-four hours, the counts were taken. Larvae not able to rise to the surface on touch were counted as dead. Each concentration was run in duplicate and each material was run on two or three different days. The average percent mortality was plotted against the logarithm of the concentration (in ppm) and the LC50 value determined by inspection.

Row | SMILES | LC50
14 | CN(Sc1nc2ccccc2s1)C(=O)Oc1cccc2c1OC(C)(C)C2 [Example VII, 2,3-Dihydro-2,2-dimethyl-7-benzofuranyl (2-benzothiazolylthio)(methyl)carbamate] | 9.5 ng/mL (≈ 0.0246 µM)

Tested on: two-spotted spider mite
Experiment: Residual contact activity, two-spotted spider mite
Conditions: Tetranychus urticae, 48 h, read-out: % Kill, SM (residual contact)

Row | SMILES | mortality at 1250 ppm
15 | CN(Sc1nc2ccccc2s1)C(=O)Oc1cccc2c1OC(C)(C)C2 [Example VII, 2,3-Dihydro-2,2-dimethyl-7-benzofuranyl (2-benzothiazolylthio)(methyl)carbamate] | 5%

Tested on: houseflies
Experiment: whole plant or invertebrate
Conditions: Musca domestica, topical, 24 h, read-out: Houseflies LD50
Method: Toxicity of the compounds of the present invention to houseflies was tested using the technique described by March and Metcalf in Bull. Calif. State Dept. Agr. […] Adult female houseflies were treated with one drop of acetone solution, applied to the prothorax, using a syringe calibrated to deliver 1.00 ± 0.05 mm^3 drops. Twenty flies were treated at each dosage, each test compound was applied at 8 to 10 dosage levels. Each test was replicated three times. […] A one-inch square of cotton saturated with 40% sugar solution was provided for food in each carton. The cartons of flies were held in a constant temperature chamber at 60° F and 60% relative humidity for 24 hours before mortality counts were made. Flies totally unable to make crawling or walking movements were counted as dead. LD50 values were calculated in the conventional manner.

Row | SMILES | LD50
16 | CN(Sc1nc2ccccc2s1)C(=O)Oc1cccc2c1OC(C)(C)C2 [Example VII, 2,3-Dihydro-2,2-dimethyl-7-benzofuranyl (2-benzothiazolylthio)(methyl)carbamate] | 8.5 mg/kg

Tested on: Mexican bean beetle
Experiment: whole plant or invertebrate
Conditions: Epilachna varivestis, 48 h, read-out: % Kill, BB (systemic)

Row | SMILES | mortality at 39 ppm | mortality at 156 ppm
17 | CN(Sc1nc2ccccc2s1)C(=O)Oc1cccc2c1OC(C)(C)C2 [Example VII, 2,3-Dihydro-2,2-dimethyl-7-benzofuranyl (2-benzothiazolylthio)(methyl)carbamate] | 68% | 81%

Tested on: plum curculio
Experiment: Initial contact activity, plum curculio
Conditions: Conotrachelus nenuphar, 48 h, read-out: % Kill, PC (initial contact)

Row | SMILES | mortality at 1250 ppm
18 | CN(Sc1nc2ccccc2s1)C(=O)Oc1cccc2c1OC(C)(C)C2 [Example VII, 2,3-Dihydro-2,2-dimethyl-7-benzofuranyl (2-benzothiazolylthio)(methyl)carbamate] | 100%

Tested on: pea aphid
Experiment: Initial contact activity, pea aphid
Conditions: Acyrthosiphon pisum, 48 h, read-out: % Kill, PA (initial contact)

Row | SMILES | mortality at 1250 ppm
19 | CN(Sc1nc2ccccc2s1)C(=O)Oc1cccc2c1OC(C)(C)C2 [Example VII, 2,3-Dihydro-2,2-dimethyl-7-benzofuranyl (2-benzothiazolylthio)(methyl)carbamate] | 100%

Tested on: granary weevil
Experiment: Initial contact activity, granary weevil
Conditions: Sitophilus granarius, 48 h, read-out: % Kill, GW (initial contact)

Row | SMILES | mortality at 1250 ppm
20 | CN(Sc1nc2ccccc2s1)C(=O)Oc1cccc2c1OC(C)(C)C2 [Example VII, 2,3-Dihydro-2,2-dimethyl-7-benzofuranyl (2-benzothiazolylthio)(methyl)carbamate] | 100%

Tested on: southern army worm
Experiment: not given
Conditions: 39 ppm soil watering; group printed before the slash (separate test vs carbofuran); 2880 min

Row | SMILES | % Kill, AW (systemic)
21 | CN(Sc1nc2ccccc2s1)C(=O)Oc1cccc2c1OC(C)(C)C2 [Example VII, 2,3-Dihydro-2,2-dimethyl-7-benzofuranyl (2-benzothiazolylthio)(methyl)carbamate] | 0%

Same assay, conditions: 156 ppm soil watering; 2880 min

Row | SMILES | % Kill, AW (systemic)
22 | CN(Sc1nc2ccccc2s1)C(=O)Oc1cccc2c1OC(C)(C)C2 [Example VII, 2,3-Dihydro-2,2-dimethyl-7-benzofuranyl (2-benzothiazolylthio)(methyl)carbamate] | 60%
